The text below walks through data of patent publication US6271239A, “Delta opioid receptor-selective benzylidene-substituted morphinans” (Regents of the University of Minnesota, priority 1995, dated 2001).

For series [1], the target named is T1, delta opioid receptor (δ; printed δ1 for DADLE in Table III) (Mus musculus, UniProt P32300).
T1 construct: Both vasa deferentia were dissected out of mice; from tissue; host or cells: mouse vas deferens
As to the kind of experiment: Mouse vas deferens (MVD) smooth muscle, antagonism of DADLE. The series is classed as cell-based. As to conditions: data of Table II, MVD/GPI. How it is done: This assay was performed according to the description by G. Henderson et al., Brit. J. Pharmacol., 46, 764 (1972). […] The organ bath was maintained at 37° C.
Concentration-response curves were obtained in the absence (control) and the presence of the antagonist are expressed as IC50 values. […] Therefore, a high IC50 ratio represents a correspondingly high degree of antagonism at a particular receptor. […] Therefore, a low Ke represents a correspondingly high degree of binding at a particular receptor.

The next series has as its target T2, δ2 opioid receptor (Mus musculus, UniProt P32300).
T2 construct: from tissue; host or cells: live mouse (BNTX i.c.v.)
The experiment in a line: Mouse tail flick antinociception, antagonism of DSLET. It is filed as in vivo. As to conditions: BNTX 6.25 pmol/i.c.v./mouse. Here is the method: (§1) The antagonist effect of BNTX on antinociception was evaluated in mice using the tail flick assay, in accord with the procedure of A. E. Takemor, et al., J. Pharmacol. Exp. Ther., 243, 91 (1987). At least three groups of ten mice were used to generate dose-response curves. A mouse was regarded as positive for antinociception if the latency to flick its tail was more than the control latency plus 3 S.D. of the mean reaction time of the group. The reaction times were determined at the peak time for antinociception after administration of various agonists. Intra-cerebroventricular (i.c.v.) injections were made in a volume of 5 μl by the method of T. J. Haley et al., Br. J. Pharmacol., 12, 12 (1957).
(§2) On Table III, the potencies are expressed as ED50 ratios, which represent the ED50 of the standard agonist administered subcutaneously in the presence of BNTX (6.25 pmoL/i.c.v./mouse), divided by the ED50 of the standard agonist.

In a further series the test system is δ1 receptors. The series is classed as binding. The note with it: guinea pig brain membranes. Here is the method: Therefore, a better assessment of the δ subtype selectivity can be obtained from binding of brain membranes and from antagonism studies in mice. The binding of BNTX to guinea pig brain membranes was determined using the general method of L. L. Werling et al., J. Pharmacol. Exp. Ther., 233, 722 (1985), as modified by A. E. Takemori et al., J. Pharmacol. Exp. Ther., 246, 255 (1988). The radio-ligands employed were [^3 H]DPDPE ([D-Pen ^2, D-Pen^5 ] enkephalin) for δ1 receptors, [^3 H]DSLET([D-Ser^2 -Leu^5 ]enkephalin-Thr^6) for δ^2 receptors, [3H]DAMGO for μ receptors and U69593(trans-(+)-3,4-dichloro-N-methyl-N-[2-(1-pyrididinyl)cyclohexyl]benzeneacetamide) for κ receptors.

A further series has as its target T3, κ opioid receptor (Mus musculus, UniProt P33534).
T3 construct: from tissue; host or cells: live mouse (BNTX i.c.v.)
As to the kind of experiment: Mouse tail flick antinociception, antagonism of U50488H (κ agonist). It is filed as in vivo. The note with it: BNTX 6.25 pmol/i.c.v./mouse. How it is done: as §1, §2

The target in another series is T4, μ opioid receptor (Mus musculus, UniProt P42866).
T4 construct: from tissue; host or cells: live mouse (BNTX i.c.v.)
T4 sequence (P42866 whole entry): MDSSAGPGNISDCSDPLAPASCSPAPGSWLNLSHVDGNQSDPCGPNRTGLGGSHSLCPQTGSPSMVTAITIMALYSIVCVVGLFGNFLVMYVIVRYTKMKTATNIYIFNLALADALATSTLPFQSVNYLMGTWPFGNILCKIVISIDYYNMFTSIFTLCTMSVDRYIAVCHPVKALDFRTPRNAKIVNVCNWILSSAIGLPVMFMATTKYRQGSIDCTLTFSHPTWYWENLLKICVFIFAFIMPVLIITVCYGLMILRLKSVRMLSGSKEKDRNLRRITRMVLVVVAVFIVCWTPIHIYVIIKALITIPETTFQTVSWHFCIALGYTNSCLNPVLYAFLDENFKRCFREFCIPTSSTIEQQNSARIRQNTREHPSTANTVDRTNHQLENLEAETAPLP
The experiment in a line: Mouse tail flick antinociception, antagonism of mu agonist. The series is classed as in vivo. As to conditions: BNTX 6.25 pmol/i.c.v./mouse. Here is the method:
as §1, §2

Series [2] relates to ethanol drinking. As to conditions: in vivo; cited from earlier work.
For series [3], the system named is ethanol drinking. As to conditions: rats bred for high voluntary ethanol drinking; application Ser. No. 07/750,109; cited from earlier work.
The test system of another series is ethanol intake. The note with it: rat model of alcoholism; cited from earlier work.
Series [4] deals with alcohol relapse in recovering alcoholics. The note with it: cited from earlier work.

Square brackets hold non-standard residues; d marks the D form. Peptide text beside a SMILES is read from it. * marks the point of attachment. Tyr(Nα,Nα-allyl2) = C=CCN(CC=C)[C@@H](Cc1ccc(O)cc1)C(=O)*; Aib = CC(C)(N)C(=O)O

T2 sequence (P32300 whole entry): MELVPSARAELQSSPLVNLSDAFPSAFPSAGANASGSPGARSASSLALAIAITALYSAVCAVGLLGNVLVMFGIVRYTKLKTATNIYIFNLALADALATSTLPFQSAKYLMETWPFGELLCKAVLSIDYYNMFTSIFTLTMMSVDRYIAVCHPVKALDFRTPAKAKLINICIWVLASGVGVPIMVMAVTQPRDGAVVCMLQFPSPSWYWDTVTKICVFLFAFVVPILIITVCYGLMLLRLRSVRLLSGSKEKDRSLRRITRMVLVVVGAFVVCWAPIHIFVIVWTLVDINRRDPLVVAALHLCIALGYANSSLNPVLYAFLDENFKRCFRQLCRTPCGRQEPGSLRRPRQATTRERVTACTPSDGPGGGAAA
T3 sequence (P33534 whole entry): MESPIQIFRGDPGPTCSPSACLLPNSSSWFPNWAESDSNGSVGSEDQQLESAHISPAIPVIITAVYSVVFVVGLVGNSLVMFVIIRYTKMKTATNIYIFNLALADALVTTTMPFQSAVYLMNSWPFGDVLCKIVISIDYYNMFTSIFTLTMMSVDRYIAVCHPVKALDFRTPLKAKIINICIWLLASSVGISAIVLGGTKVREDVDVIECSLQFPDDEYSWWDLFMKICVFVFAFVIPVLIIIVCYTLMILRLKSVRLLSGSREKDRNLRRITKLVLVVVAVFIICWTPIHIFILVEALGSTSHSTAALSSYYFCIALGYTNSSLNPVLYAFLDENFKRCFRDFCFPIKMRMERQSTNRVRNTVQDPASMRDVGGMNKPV
T1 sequence (P32300 whole entry): as the sequence (P32300 whole entry) above

`O=C1C(=Cc2ccccc2)C[C@@]2(O)[C@H]3Cc4ccc(O)c5c4[C@@]2(CCN3CC2CC2)[C@H]1O5` [BNTX, 7-Benzylidene-7-dehydronaltrexone]: the “selectivity (smooth muscle, words)” value in series [1] is on record as “δ-selective antagonist”. Further, the “shift of dose-response curve, DSLET” value on δ2 opioid receptor (words) is given as “not shifted significantly”. Also, on δ2 opioid receptor (ED50 of DSLET in presence of BNTX / ED50 of agonist), the “ED50 Ratio ("Potency Ratio"), DSLET (δ2)” value is reported as 0.91. In addition, in the series with δ1 receptors, the “selectivity (binding, words)” value is recorded as “highly selective for δ1 receptor sites”. Moreover, the “shift of dose-response curve, U50488H” value at κ opioid receptor (words) was “not shifted significantly”. The “ED50 Ratio ("Potency Ratio"), U50488H (κ)” value on κ opioid receptor (ED50 of U50488H in presence of BNTX / ED50 of agonist) was found to be 1.2. On μ opioid receptor (words), the “shift of dose-response curve, morphine” value is “not shifted significantly”. For the same compound, on μ opioid receptor (ED50 of DAMGO (so in the source) in presence of BNTX / ED50 of agonist), the “ED50 Ratio ("Potency Ratio"), DAMGO (μ)” value is reported as 0.88.

On to `C=CCN(CC=C)[C@@H](Cc1ccc(O)cc1)C(=O)NC(C)(C)C(=O)NC(C)(C)C(=O)N[C@@H](Cc1ccccc1)C(=O)N[C@@H](CC(C)C)C(=O)O` [ICI 174864, N,N-diallyl-Tyr-Aib-Aib-Phe-Leu-OH] ({Tyr(Nα,Nα-allyl2)}-[Aib][Aib]FL-OH), for which, in the series on ethanol drinking [2], the duration of action entry is “very short duration of action” and the ethanol drinking entry is listed as “strongly inhibits ethanol drinking”.

For the compound `Oc1ccc2c3c1O[C@H]1c4oc5ccccc5c4C[C@@]4(O)[C@@H](C2)N(CC2CC2)CC[C@]314` [NTB], in the series on ethanol drinking [3], the “suppression of ethanol drinking / water intake” value is reported as “unexpectedly prolonged suppression of ethanol drinking without altering water intake”.

Consider `Oc1ccc2c3c1O[C@H]1c4[nH]c5ccccc5c4C[C@@]4(O)[C@@H](C2)N(CC2CC2)CC[C@]314` [NTI], for which the “suppression of ethanol drinking / water intake” value with ethanol drinking [3] was “unexpectedly prolonged suppression of ethanol drinking without altering water intake”.

Regarding `C=CCN1CC[C@]23c4c5ccc(O)c4O[C@H]2C(=O)CC[C@@]3(O)[C@H]1C5` [Naloxone, naloxone], in the series with ethanol intake, the “ethanol and water intake” value is on record as “suppress ethanol but not water intake”.

For the compound `O=C1CC[C@@]2(O)[C@H]3Cc4ccc(O)c5c4[C@@]2(CCN3CC2CC2)[C@H]1O5` [Naltrexone, naltrexone], the “incidence of relapse in recovering alcoholics” value in series [4] is given as “reduce the incidence of relapse in recovering alcoholics”.
